The text below walks through data of patent publication US11352368B2, “Salt of fused ring pyrimidine compound, crystal form thereof and preparation method therefor and use thereof” (GUANGZHOU MAXINOVEL PHARMACEUTICALS CO., LTD., priority 2018, dated 2022).

Data set [1] can be described thus: Solubility test of crystal form A and crystal form B in a medium (Example 12). In kind it is physicochemical. To be noted: for solubility: thermodynamic from solid, read-out: Solubility (calculated by free base of the fused ring pyrimidine compound); for Solubility (calculated by free base of the fused ring pyrimidine compound): in mg/mL (unit assumed); for solubility in pure water compared to free base: versus free base of the fused ring pyrimidine compound. The source says:
Example 12 Solubility Test of the Crystal Form A of the Fumarate of Fused Ring Pyrimidine Compound as Shown in Formula 2 and the Crystal Form B of the Adipate of Fused Ring Pyrimidine Compound as Shown in Formula 3 in a Medium

The nature of data set [2]: Dynamic vapor sorption analysis (DVS). In kind it is physicochemical. To be noted: for XRPD of samples after DVS test: XRPD diffraction peaks before and after DVS test; for DVS weight gain from 0% RH to 95% RH: 25° C., 0% to 95% relative humidity, weight percentage. Here is the method:
(§1) 10 mg of the crystal form A of the fumarate of fused ring pyrimidine compound as shown in formula 2 was weighed, and dried for 60 min under the condition of a temperature of 25° C. and a humidity of 0% RH, and then the humidity absorption characteristic of the sample was tested when the humidity changed from 0% RH to 95% RH, and the dehumidification characteristic of the sample was tested when the humidity changed from 95% RH to 0% RH. Each step length for the humidity changes was 5% RH, the balance standard was that the weight change rate was less than 0.01%/min within 5 min, and the longest balance time was 2 hours.
as §1, with “form B” for “form A”, “the adipate” for “the fumarate”, “formula 3” for “formula 2”

Data set [3] can be described thus: Solubility test of the salts in pure water (Example 6). In kind it is physicochemical. To be noted: for saturated solubility: room temperature, balancing about 20 hours, HPLC; for solubility in pure water compared with the free base: versus free base of the fused ring pyrimidine compound. Here is the method:
2.0 mg of sample was precisely weighed into a liquid phase vial, 1.0 mL of purified water was added, the vial was subjected to ultrasonic treatment for about 30 seconds to disperse the samples evenly, then the vial was placed on a Labquaker rotator, and slowly rotated at room temperature for balancing. After balancing for about 20 hours, each vial was removed, and the solution was filtered with 0.45 μm nylon filter membrane. The filtrate was diluted by DMSO or not diluted and then detected by HPLC. At the same time, two parts of fused ring pyrimidine compounds were weighed and dissolved in DMSO to make standard solutions with concentration of 250 μg/mL and 500 μg/mL, respectively. The standard solutions were subjected to the HPLC detection. The sample concentration vs the peak area of HPLC principal component was used for make a standard curve, and the solubility of each sample in pure water was calculated by a external standard method.

The nature of data set [4]: Stability test (total impurities, 20 days). In kind it is physicochemical. To be noted: for chemical stability in the condition of high temperature and high humidity / stability under light conditions versus the compound of formula 1: 20 days. As for the experimental part:
The crystal form A of the fumarate of fused ring pyrimidine compound as shown in formula 2, the crystal form B of the adipate of fused ring pyrimidine compound as shown in formula 3 and the fused ring pyrimidine compound as shown in formula 1 were subjected to tests at a high temperature of 60° C., 25° C./60% RH, 40° C./75% RH and highlight irradiation (4500 lx±500 lx), the test time was 20 days, the sample bottles were placed under different test conditions, and samples were taken at 0 and 20 days to detect the total amount of impurities, and the test results were shown in Table 8 below.

Data set [5] can be described thus: Pharmacokinetic experiment, single intragastric dose in rats. In kind it is in vivo, SD rats. To be noted: single dose 10 mg/kg, 0.5% MC and 0.5% Tween80 in water. As for the experimental part:
1) Preparation of animals 9 healthy male SD rats, each with a body weight of 220-230 g, were taken, fed with standard formulated granulated feed for rats at fixed times every day, and fasted for 12 hours before the experiment, and feeding was resumed after 4 hours of administration. Rats were free to drink water before, after and during the experiment. 9 rats were randomly divided into 3 groups.
2) Formulation of drugs: The fused ring pyrimidine compound as shown in formula 1, the crystal form A of the fumarate of fused ring pyrimidine compound as shown in formula 2 and the crystal form B of the adipate of fused ring pyrimidine compound as shown in formula 3 were accurately weighed, and were formulated into a 1 mg/mL solution in water (Wahaha/111830) with 0.5% MC (Fluka/BCBK3534K) and 0.5% Tween80 (TCl/V4FSC), respectively.
3) Intragastric administration with single dose (10 mg/kg): in the first group, rats were intragastrically administered with a solution of the fused ring pyrimidine compound as shown in formula 1, in the second group, rats were intragastrically administered with a solution of the crystal form A of the fumarate of fused ring pyrimidine compound as shown in formula 2, and in the third group, rats were intragastrically administered with a solution of the crystal form B of the adipate of fused ring pyrimidine compound as shown in formula 3.
4) Collection of blood samples: About 150 μL of blood was taken from the fundus venous plexus before administration and 0.083, 0.25, 0.5, 1, 2, 4, 8 and 24 hours after administration from each rat in the three groups, and anticoagulated with K2EDTA, plasma was separated by centrifugation and the supernatant was collected for LC-MS analysis.

[6] abbreviates: listed as The fumarate of fused ring pyrimidine compound as shown in formula 2.
[7] abbreviates: listed as The phosphate of fused ring pyrimidine compound as shown in formula 4.
Setting [8] is: listed as The tartrate of fused ring pyrimidine compound as shown in formula 5.
Setting [9] is: medium intestinal fluid in simulated fed state (FeSSIF).
The mark [10] stands for this setting: medium pH 4 (50 mM phosphate buffer).
[11] abbreviates: medium pH 6 (50 mM phosphate buffer).

Converted amounts (≈) assume the structure as drawn. Where a name gives a salt, the structure may show the parent alone. Read-outs that look alike come from different tables or passages of the source.

In the case of `COc1cc(F)ccc1-c1c(C)sc2cnc(Nc3cnn(C4CCNCC4)c3)nc12`, the solubility (usually the concentration that dissolves in the medium under given conditions) in data set [1] (50 mM phosphate buffer, pH 6, aqueous buffer, medium pH 6 (50 mM phosphate buffer)) is 36 µg/mL (≈ 82.1 µM); in data set [1] (FeSSIF, medium intestinal fluid in simulated fed state (FeSSIF)) it was 1910 µg/mL (≈ 4350 µM).

As to `COc1cc(F)ccc1-c1c(C)sc2cnc(Nc3cnn(C4CCNCC4)c3)nc12` [Example 1], in data set [2] (setting [6]), the “DVS: Moisture-absorption weight gain at 85% RH” value (“DVS … at 85% RH” below) was 85% RH: 0.324%, the “DVS: Moisture-absorption weight gain at 95% RH” value (“DVS … at 95% RH” for short) is given as 95% RH: 0.404%, the “XRPD of samples after DVS test” value is “consistent” and the “DVS: Weight loss in drying stage” value is “drying stage: 0.117%”. Besides, in data set [3], the saturated solubility was 170 µg/mL and the “solubility in pure water compared with the free base” value is “significantly improved”.

In the case of `COc1cc(F)ccc1-c1c(C)sc2cnc(Nc3cnn(C4CCNCC4)c3)nc12` [Example 2], in data set [3], the saturated solubility worked out at 520 µg/mL and the “solubility in pure water compared with the free base” value is “significantly improved”.

Consider `COc1cc(F)ccc1-c1c(C)sc2cnc(Nc3cnn(C4CCNCC4)c3)nc12` [Example 3], for which, in data set [2] (setting [7]), the “DVS … at 85% RH” value is reported as 85% RH: 6.95%, the “DVS … at 95% RH” value is on record as 95% RH: 12.15%, the “XRPD of samples after DVS test” value is reported as “consistent” and the “DVS: Weight loss in drying stage” value is on record as “drying stage: 0.752%”. For the same molecule, in data set [3], the saturated solubility was determined as 675 µg/mL and the “solubility in pure water compared with the free base” value is reported as “significantly improved”.

Consider `COc1cc(F)ccc1-c1c(C)sc2cnc(Nc3cnn(C4CCNCC4)c3)nc12` [Example 4], for which, in data set [2] (setting [8]), the “DVS … at 85% RH” value is 85% RH: 8.390%, the “DVS … at 95% RH” value is given as 95% RH: 8.659% and the “DVS: Weight loss in drying stage” value was “drying stage: 5.88%”. Further, in data set [3], the saturated solubility came to 146 µg/mL and the “solubility in pure water compared with the free base” value is reported as “significantly improved”.

Consider `COc1cc(F)ccc1-c1c(C)sc2cnc(Nc3cnn(C4CCNCC4)c3)nc12` [The crystal form A of the fumarate of fused ring pyrimidine ], for which the “DVS weight gain from 0% RH to 95% RH” value in data set [2] was 0.2518%. The Impurity content in data set [4] (Day 0) worked out at 0.25%; in data set [4] (Day 20, 25° C/60% RH), 0.25%; in data set [4] (Day 20, 40° C/75% RH) it was 0.28%; in data set [4] (Day 20, 60° C), 0.25%; in data set [4] (Day 20, Light (4500 lx±500 lx)) it was 0.46%. Moreover, in data set [4], the “chemical stability in the condition of high temperature and high humidity” value was “good chemical stability”. For the same molecule, the “stability under light conditions versus the compound of formula 1” value in data set [4] is “significantly higher”. Also, the “solubility in intestinal fluid (FeSSIF) in simulated fed state, in words” value in data set [1] (FeSSIF) is recorded as “high”. The “pH value of sample solution for solubility” value in data set [1] (medium Purified water) is on record as 7.27; in data set [1] (setting [9]), 5.19; in data set [1] (setting [10]), 4.33; in data set [1] (setting [11]) it was 5.96. The “Solubility (calculated by free base of the fused ring pyrimidine compound)” value is 0.126 in data set [1] (medium Purified water) and 0.159 in data set [1] (setting [10]). Besides, the “solubility in pure water compared to free base” value in data set [1] is recorded as “significantly improved”. In data set [5], the “Blood drug concentration (AUC)” value was 999 ng·h/mL.

As for `COc1cc(F)ccc1-c1c(C)sc2cnc(Nc3cnn(C4CCNCC4)c3)nc12` [The crystal form B of the adipate of fused ring pyrimidine c], in data set [2], the “DVS weight gain from 0% RH to 95% RH” value came to 2.751%. The Impurity content in data set [4] (Day 0) was 0.24%; in data set [4] (Day 20, 25° C/60% RH), 0.22%; in data set [4] (Day 20, 40° C/75% RH) it was 0.22%; in data set [4] (Day 20, 60° C) it was 0.23%; in data set [4] (Day 20, Light (4500 lx±500 lx)) it was 0.42%. The “chemical stability in the condition of high temperature and high humidity” value in data set [4] is on record as “good chemical stability”. Further, the “stability under light conditions versus the compound of formula 1” value in data set [4] is listed as “significantly higher”. Besides, the “pH value of sample solution for solubility” value in data set [1] (medium Purified water) is listed as 7.09; in data set [1] (setting [9]), 5.2; in data set [1] (setting [10]) it was 4.85; in data set [1] (setting [11]), 6.01. The “Solubility (calculated by free base of the fused ring pyrimidine compound)” value was 0.463 in data set [1] (medium Purified water), 1.46 in data set [1] (setting [9]), 0.104 in data set [1] (setting [10]) and 0.035 in data set [1] (setting [11]). Also, the “solubility in pure water compared to free base” value in data set [1] is “significantly improved”. In addition, in data set [5], the “Blood drug concentration (AUC)” value amounted to 1038 ng·h/mL.
